Measurements taken from paper PMC5862592, “CDK8/19 inhibition induces premature G1/S transition and ATR-dependent cell death in prostate cancer cells” (Oncotarget, 2018).
Like-named read-outs stand apart in the source and are kept apart here.

Key:
Experiment in all cases: biochemical
Set-up in all cases: KINOMEscan active site-directed competition binding assay (DiscoveRx), 456 kinases, per cent of control at 300 nM
Conditions in all cases: read-out: Percent of Control (%)
EPHB6 = EPHB6 (Homo sapiens, UniProt O15197)
Method in brief: (§1)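 Active site-directed competition binding (KINOMEscan) across a 456-kinase panel, compounds tested at 300 nmol/L.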

ASK1 = molecular target: T1, ASK1 (Homo sapiens, UniProt Q99683)
T1 construct: gene MAP3K5
Method in brief: as §1

ULK3 = ULK3 (Homo sapiens, UniProt Q6PHR2)
Method in brief: as §1

PDPK1 = PDPK1 (Homo sapiens, UniProt O15530)
Method in brief: as §1

GRK4 = GRK4 (Homo sapiens, UniProt P32298)
Method in brief: as §1

GRK1 = GRK1 (Homo sapiens, UniProt Q15835)
Method in brief: as §1

S6K1 = molecular target: T2, S6K1 (Homo sapiens, UniProt P23443)
T2 construct: gene RPS6KB1
Method in brief: as §1

[1] = molecular target: T3, RSK1(Kin.Dom.1-N-terminal) (Homo sapiens, UniProt Q15418)
T3 construct: gene RPS6KA1; Kin.Dom.1-N-terminal
Method in brief: as §1

CDKL3 = CDKL3 (Homo sapiens, UniProt Q8IVW4)
Method in brief: as §1

[2] = molecular target: T4, JAK1(JH2domain-pseudokinase) (Homo sapiens, UniProt P23458)
T4 construct: JH2domain-pseudokinase
Method in brief: as §1

PKMYT1 = PKMYT1 (Homo sapiens, UniProt Q99640)
Method in brief: as §1

TRKB = molecular target: T5, TRKB (Homo sapiens, UniProt Q16620)
T5 construct: gene NTRK2
Method in brief: as §1

PFTAIRE2 = molecular target: T6, PFTAIRE2 (Homo sapiens, UniProt Q96Q40)
T6 construct: gene CDK15
Method in brief: as §1

IRAK4 = IRAK4 (Homo sapiens, UniProt Q9NWZ3)
Method in brief: as §1

MYLK2 = MYLK2 (Homo sapiens, UniProt Q9H1R3)
Method in brief: as §1

DRAK2 = molecular target: T7, DRAK2 (Homo sapiens, UniProt O94768)
T7 construct: gene STK17B
Method in brief: as §1

TNK1 = TNK1 (Homo sapiens, UniProt Q13470)
Method in brief: as §1

PIK3CA(E542K) = PIK3CA(E542K) (Homo sapiens, UniProt P42336, E542K)
Method in brief: as §1

MST1R = MST1R (Homo sapiens, UniProt Q04912)
Method in brief: as §1

TEC = TEC (Homo sapiens, UniProt P42680)
Method in brief: as §1

TLK2 = TLK2 (Homo sapiens, UniProt Q86UE8)
Method in brief: as §1

EGFR(E746-A750del) = EGFR(E746-A750del) (Homo sapiens, UniProt P00533, DEL746-750)
Method in brief: as §1

T3 sequence (Q15418 whole entry): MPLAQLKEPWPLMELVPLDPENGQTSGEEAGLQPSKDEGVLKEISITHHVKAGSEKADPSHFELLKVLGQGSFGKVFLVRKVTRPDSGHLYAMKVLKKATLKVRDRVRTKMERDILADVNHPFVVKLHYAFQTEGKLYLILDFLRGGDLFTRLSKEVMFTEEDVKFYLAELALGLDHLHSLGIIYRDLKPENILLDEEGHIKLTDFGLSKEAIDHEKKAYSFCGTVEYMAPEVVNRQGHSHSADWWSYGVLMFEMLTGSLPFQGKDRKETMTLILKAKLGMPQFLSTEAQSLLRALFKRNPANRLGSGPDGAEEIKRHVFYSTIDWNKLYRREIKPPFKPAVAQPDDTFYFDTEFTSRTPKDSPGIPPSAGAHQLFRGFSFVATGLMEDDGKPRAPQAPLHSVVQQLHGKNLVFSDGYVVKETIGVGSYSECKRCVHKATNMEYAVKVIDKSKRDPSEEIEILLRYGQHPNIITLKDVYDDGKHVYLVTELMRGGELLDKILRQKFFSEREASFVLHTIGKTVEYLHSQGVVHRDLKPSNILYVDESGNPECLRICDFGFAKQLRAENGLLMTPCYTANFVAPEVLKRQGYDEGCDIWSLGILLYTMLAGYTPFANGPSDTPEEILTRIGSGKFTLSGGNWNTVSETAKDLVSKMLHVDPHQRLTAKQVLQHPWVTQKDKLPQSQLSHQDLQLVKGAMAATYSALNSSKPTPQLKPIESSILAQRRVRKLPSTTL
Chain of IRAK4 (Q9NWZ3 whole entry): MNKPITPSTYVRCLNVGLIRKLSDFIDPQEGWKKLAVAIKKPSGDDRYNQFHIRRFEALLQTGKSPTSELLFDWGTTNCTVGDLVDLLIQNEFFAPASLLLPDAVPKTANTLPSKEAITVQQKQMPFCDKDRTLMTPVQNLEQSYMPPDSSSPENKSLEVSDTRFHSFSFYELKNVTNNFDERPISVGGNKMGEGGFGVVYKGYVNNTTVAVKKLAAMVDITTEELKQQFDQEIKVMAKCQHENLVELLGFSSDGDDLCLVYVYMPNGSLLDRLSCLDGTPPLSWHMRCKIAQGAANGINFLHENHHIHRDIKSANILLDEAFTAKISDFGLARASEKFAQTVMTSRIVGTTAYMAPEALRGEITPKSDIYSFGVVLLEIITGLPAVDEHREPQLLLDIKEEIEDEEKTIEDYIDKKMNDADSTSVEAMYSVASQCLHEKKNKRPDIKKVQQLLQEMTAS
Chain of ULK3 (Q6PHR2 whole entry): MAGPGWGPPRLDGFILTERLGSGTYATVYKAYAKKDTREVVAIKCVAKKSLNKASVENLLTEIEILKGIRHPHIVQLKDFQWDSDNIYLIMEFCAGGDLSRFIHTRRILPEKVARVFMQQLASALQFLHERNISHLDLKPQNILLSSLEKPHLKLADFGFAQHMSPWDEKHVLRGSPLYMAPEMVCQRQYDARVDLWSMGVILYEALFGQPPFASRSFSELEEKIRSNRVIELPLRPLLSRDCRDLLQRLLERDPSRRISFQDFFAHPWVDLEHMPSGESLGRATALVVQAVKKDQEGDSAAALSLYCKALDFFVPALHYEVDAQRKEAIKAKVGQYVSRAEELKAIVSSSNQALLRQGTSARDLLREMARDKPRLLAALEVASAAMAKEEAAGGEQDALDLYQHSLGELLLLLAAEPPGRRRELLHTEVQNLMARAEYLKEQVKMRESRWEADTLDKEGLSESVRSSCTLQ
Chain of PKMYT1 (Q99640 whole entry): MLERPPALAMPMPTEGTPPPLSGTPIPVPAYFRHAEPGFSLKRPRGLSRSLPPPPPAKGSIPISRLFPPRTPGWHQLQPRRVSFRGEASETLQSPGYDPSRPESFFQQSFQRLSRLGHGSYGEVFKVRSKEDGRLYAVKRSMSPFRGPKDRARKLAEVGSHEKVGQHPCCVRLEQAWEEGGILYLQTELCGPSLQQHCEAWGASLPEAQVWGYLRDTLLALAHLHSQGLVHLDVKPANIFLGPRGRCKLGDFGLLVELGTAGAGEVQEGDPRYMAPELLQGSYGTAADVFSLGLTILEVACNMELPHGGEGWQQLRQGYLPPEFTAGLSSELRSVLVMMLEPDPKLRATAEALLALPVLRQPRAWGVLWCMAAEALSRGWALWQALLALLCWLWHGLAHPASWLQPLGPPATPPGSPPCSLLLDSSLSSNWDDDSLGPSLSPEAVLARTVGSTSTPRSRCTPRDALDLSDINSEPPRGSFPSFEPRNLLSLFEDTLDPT
T2 sequence (P23443 whole entry): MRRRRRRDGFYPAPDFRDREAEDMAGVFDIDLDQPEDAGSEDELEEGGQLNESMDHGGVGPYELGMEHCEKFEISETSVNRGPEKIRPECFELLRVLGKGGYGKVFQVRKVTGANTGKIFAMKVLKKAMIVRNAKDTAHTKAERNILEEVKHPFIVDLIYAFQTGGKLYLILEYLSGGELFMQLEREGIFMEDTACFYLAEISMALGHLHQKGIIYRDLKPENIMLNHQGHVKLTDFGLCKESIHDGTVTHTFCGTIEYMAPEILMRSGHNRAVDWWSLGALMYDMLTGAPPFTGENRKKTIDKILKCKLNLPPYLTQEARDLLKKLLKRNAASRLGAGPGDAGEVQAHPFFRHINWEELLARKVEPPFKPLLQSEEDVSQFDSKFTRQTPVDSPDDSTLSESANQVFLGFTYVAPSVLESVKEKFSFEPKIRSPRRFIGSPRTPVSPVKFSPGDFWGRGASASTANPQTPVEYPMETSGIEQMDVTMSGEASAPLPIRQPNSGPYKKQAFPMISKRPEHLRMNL
Chain of GRK1 (Q15835 whole entry): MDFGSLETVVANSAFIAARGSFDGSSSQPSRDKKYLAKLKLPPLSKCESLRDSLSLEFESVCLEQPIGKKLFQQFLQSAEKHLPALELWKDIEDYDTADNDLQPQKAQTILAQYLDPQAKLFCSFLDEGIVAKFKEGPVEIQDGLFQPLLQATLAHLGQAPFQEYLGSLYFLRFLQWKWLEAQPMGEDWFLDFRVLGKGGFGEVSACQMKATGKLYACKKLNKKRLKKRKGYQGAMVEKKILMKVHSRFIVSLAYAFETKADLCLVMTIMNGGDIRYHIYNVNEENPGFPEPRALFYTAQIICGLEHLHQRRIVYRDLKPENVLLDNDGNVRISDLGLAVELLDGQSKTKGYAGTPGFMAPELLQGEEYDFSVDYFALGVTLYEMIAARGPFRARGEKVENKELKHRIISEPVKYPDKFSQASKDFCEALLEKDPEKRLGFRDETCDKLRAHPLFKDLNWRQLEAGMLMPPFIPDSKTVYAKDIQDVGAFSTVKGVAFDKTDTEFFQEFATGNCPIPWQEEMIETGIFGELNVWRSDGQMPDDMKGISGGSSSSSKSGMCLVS
Chain of CDKL3 (Q8IVW4 whole entry): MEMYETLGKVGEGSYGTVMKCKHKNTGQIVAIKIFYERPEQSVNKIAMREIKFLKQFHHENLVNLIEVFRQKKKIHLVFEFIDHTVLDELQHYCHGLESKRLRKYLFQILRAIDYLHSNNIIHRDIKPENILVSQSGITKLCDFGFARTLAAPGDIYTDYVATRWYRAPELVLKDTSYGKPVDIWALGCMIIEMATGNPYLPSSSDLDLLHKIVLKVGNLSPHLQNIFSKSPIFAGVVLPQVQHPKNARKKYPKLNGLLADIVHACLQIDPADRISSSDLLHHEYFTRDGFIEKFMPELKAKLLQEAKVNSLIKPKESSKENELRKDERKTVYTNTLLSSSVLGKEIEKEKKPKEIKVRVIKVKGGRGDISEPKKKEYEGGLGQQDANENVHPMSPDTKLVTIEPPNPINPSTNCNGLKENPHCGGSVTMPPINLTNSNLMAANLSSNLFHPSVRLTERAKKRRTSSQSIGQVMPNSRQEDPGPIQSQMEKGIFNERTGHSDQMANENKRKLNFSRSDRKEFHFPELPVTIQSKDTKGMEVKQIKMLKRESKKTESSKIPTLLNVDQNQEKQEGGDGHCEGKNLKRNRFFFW
T6 sequence (Q96Q40 whole entry): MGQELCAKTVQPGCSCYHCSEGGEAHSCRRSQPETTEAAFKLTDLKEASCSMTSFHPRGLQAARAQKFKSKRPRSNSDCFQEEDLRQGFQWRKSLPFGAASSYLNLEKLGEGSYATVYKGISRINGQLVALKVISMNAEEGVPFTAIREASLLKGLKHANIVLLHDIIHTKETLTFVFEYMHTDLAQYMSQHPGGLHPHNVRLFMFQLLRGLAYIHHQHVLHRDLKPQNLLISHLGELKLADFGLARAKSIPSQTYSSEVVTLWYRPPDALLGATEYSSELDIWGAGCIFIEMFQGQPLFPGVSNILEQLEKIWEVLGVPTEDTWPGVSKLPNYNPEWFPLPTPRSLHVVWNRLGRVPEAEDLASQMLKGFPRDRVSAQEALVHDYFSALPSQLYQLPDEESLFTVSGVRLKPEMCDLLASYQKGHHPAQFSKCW
T7 sequence (O94768 whole entry): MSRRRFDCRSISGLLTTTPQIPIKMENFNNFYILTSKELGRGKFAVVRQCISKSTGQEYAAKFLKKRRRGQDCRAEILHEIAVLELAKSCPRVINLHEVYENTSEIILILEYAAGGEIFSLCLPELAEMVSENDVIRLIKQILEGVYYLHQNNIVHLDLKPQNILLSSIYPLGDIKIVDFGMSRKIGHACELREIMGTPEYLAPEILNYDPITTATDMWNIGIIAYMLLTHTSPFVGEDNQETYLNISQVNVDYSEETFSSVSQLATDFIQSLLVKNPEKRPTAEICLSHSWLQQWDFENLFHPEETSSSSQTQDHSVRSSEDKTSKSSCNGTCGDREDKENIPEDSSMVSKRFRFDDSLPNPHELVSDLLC

SMILES: O=C(/C=C/c1cnccc1-c1ccc(F)cc1)Nc1ccc(CCc2nnco2)cc1 [T-418, (2E)-3-(4-(4-fluorophenyl)pyridin-3-yl)-N-(4-(2-(1,3,4-oxadiazol-2-yl)ethyl)phenyl)acrylamide]
- remaining binding at 0.3 µM (EPHB6; sheet T-418): 93%
- remaining binding at 0.3 µM (ASK1; sheet T-418): 92%
- remaining binding at 0.3 µM (ULK3; sheet T-418): 20%
- remaining binding at 0.3 µM (PDPK1; sheet T-418): 64%
- remaining binding at 0.3 µM (GRK4; sheet T-418): 100%
- remaining binding at 0.3 µM (GRK1; sheet T-418): 100%
- remaining binding at 0.3 µM (S6K1; sheet T-418): 100%
- remaining binding at 0.3 µM ([1]; sheet T-418): 78%
- remaining binding at 0.3 µM (CDKL3; sheet T-418): 78%
- remaining binding at 0.3 µM ([2]; sheet T-418): 100%
- remaining binding at 0.3 µM (PKMYT1; sheet T-418): 73%
- remaining binding at 0.3 µM (TRKB; sheet T-418): 100%
- remaining binding at 0.3 µM (PFTAIRE2; sheet T-418): 92%
- remaining binding at 0.3 µM (IRAK4; sheet T-418): 100%
- remaining binding at 0.3 µM (MYLK2; sheet T-418): 62%
- remaining binding at 0.3 µM (DRAK2; sheet T-418): 94%
- remaining binding at 0.3 µM (TNK1; sheet T-418): 87%
- remaining binding at 0.3 µM (PIK3CA(E542K); sheet T-418): 100%
- remaining binding at 0.3 µM (MST1R; sheet T-418): 100%
- remaining binding at 0.3 µM (TEC; sheet T-418): 98%
- remaining binding at 0.3 µM (TLK2; sheet T-418): 100%
- remaining binding at 0.3 µM (EGFR(E746-A750del); sheet T-418): 92%

SMILES: Cc1ncccc1Oc1sc(C(N)=O)c2c1-c1c(cnn1C)CC2 [T-474, 1-methyl-8-((2-methylpyridin-3-yl)oxy)-4,5-dihydro-1H-thieno[3,4-g]indazole-6-carboxamide]
- remaining binding at 0.3 µM (EPHB6): 86%
- remaining binding at 0.3 µM (ASK1): 81%
- remaining binding at 0.3 µM (ULK3): 20%
- remaining binding at 0.3 µM (PDPK1): 70%
- remaining binding at 0.3 µM (GRK4): 100%
- remaining binding at 0.3 µM (GRK1): 100%
- remaining binding at 0.3 µM (S6K1): 100%
- remaining binding at 0.3 µM [1]: 95%
- remaining binding at 0.3 µM (CDKL3): 96%
- remaining binding at 0.3 µM [2]: 100%
- remaining binding at 0.3 µM (PKMYT1): 71%
- remaining binding at 0.3 µM (TRKB): 92%
- remaining binding at 0.3 µM (PFTAIRE2): 100%
- remaining binding at 0.3 µM (IRAK4): 100%
- remaining binding at 0.3 µM (MYLK2): 92%
- remaining binding at 0.3 µM (DRAK2): 100%
- remaining binding at 0.3 µM (TNK1): 98%
- remaining binding at 0.3 µM (PIK3CA(E542K)): 100%
- remaining binding at 0.3 µM (MST1R): 95%
- remaining binding at 0.3 µM (TEC): 100%
- remaining binding at 0.3 µM (TLK2): 100%
- remaining binding at 0.3 µM (EGFR(E746-A750del)): 87%
